Assay results published in PubChem BioAssay (NCI).
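Values below derive from 48-hour exposures of cells grown in 96-well plates, with endpoints linearly interpolated between the two concentrations bracketing the appropriate inhibition level. Abbreviation: GI50, concentration required for 50% inhibition of growth. TGI marks complete inhibition of growth.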

Experiments:
Assay in all cases: NCI anticancer screen, dose series, 48 h
[1] = system: MOLT-4 leukemia
[2] = system: SK-MEL-5 melanoma
[3] = system: RXF 393 renal
[4] = system: HCC-2998 colon
[5] = system: NCI-H460 lung
[6] = system: SF-268 CNS
[7] = system: HOP-18 NSCLC
[8] = system: IGROV1 ovarian
[9] = system: RXF-631 renal
[10] = system: DMS 273 small cell lung
[11] = system: DLD-1 colon
[12] = system: BT-549 breast

Row | Structure (SMILES) | TGI [1] [µM] | TGI [2] [µM] | TGI [3] [µM] | TGI [4] [µM] | TGI [5] [µM] | TGI [6] [µM] | TGI [7] [µM] | TGI [8] [µM] | TGI [9] [µM] | TGI [10] [µM] | TGI [11] [µM] | GI50 [2] [µM] | GI50 [3] [µM] | GI50 [4] [µM] | GI50 [5] [µM] | GI50 [6] [µM] | TGI [12] [µM] | GI50 [1] [µM] | GI50 [8] [µM] | GI50 [12] [µM]
1 | Cc1ccc(S(=O)(=O)NCCCSCCN)cc1 | > 100 | > 100 | > 100 | > 100 | > 100 | > 100 |  |  |  |  |  |  |  |  |  |  |  |  |  | 
2 | O=C(Nc1ccc(C(F)(F)F)cc1[N+](=O)[O-])C(=O)Nn1c(=S)[nH]c2ccccc2c1=O | > 100 | > 100 | > 100 | > 100 | > 100 | > 100 | > 100 | > 100 | > 100 | > 100 | > 100 |  |  |  |  |  |  |  |  | 
3 | CC(C)N(CCNc1nc(C(Cl)(Cl)Cl)nc2cc(Cl)ccc12)C(C)C |  | 2.93 | 2.78 | 2.86 | 2.6 | 4.44 |  |  |  |  |  | 1.56 | 1.41 | 1.34 | 1.13 | 1.97 |  |  |  | 
4 | OCC1NC(CO)C(O)C1O (stereo not given) | > 100 | > 100 | > 100 | > 100 | > 100 |  |  | > 100 |  |  |  |  |  |  |  |  | > 100 |  |  | 
5 | O=S1(=O)C[C@H](NCc2ccccc2)[C@H](NCc2ccccc2)C1 | > 100 | > 100 | > 100 | > 100 | > 100 | > 100 |  | > 100 |  |  |  |  |  |  |  |  | > 100 |  |  | 
6 | COc1ccc(CCn2ccc(C)n2)c(OC)c1 | > 100 | > 100 | > 100 |  | > 100 | > 100 |  | > 100 |  |  |  |  |  |  |  |  | > 100 |  |  | 
7 | CC=C/C=C/[C@@H]1O[C@](O)([C@H](CC)C(=O)NC/C=C/C=C(\C)[C@@H](OC)[C@@H](C)[C@@H]2O[C@H](/C=C/C=C/C=C(\C)C(=O)c3c(O)cc[nH]c3=O)[C@H](O)[C@@H]2O)[C@H](O)[C@H](O)C1(C)C | > 100 |  |  | > 100 | > 100 | > 100 |  | > 100 |  |  |  |  |  |  |  |  |  |  |  | 
8 | CC(=O)OC/C=C\Cn1ncc(=O)[nH]c1=O | 44 | 26.7 | 37.1 | 35 | 48.7 | 36.7 |  | 42.5 |  |  |  |  |  |  |  |  |  |  |  | 
9 | Fc1ccc(C2CC(c3cccc(Nc4ccncc4)c3)=NN2c2ccccc2)cc1 (stereo not given) | 5.81 | 3.22 |  | 3 | 3.19 | 3.4 |  | 3.49 |  |  |  | 1.78 |  | 1.63 | 1.76 | 1.75 | 3.46 | 2.47 | 1.8 | 1.68
10 | CCOP(=O)(OCC)C(Cc1c[nH]c2ccccc12)C(=O)O (stereo not given) | > 100 | > 100 |  | > 100 | > 100 |  |  | > 100 |  |  |  |  |  |  |  |  |  |  |  | 
